In US8247211B2, “Glycopeptide antibiotics” (American Cyanamid Company, priority 2001, dated 2012):
Converted amounts (≈) assume the structure as drawn.

Legend:
Assay in all cases: In vitro antibacterial evaluation: minimum inhibitory concentration (MIC), broth dilution method
Type in all cases: cell-based
Conditions in all cases: 18 hours at 35° C.
Enterococcus sp. = tested on: Enterococcus sp.
How it was run: (§1)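 Values are minimum inhibitory concentrations, meaning the smallest antibiotic concentration that stops growth of the organism. They come from broth dilution in Muller-Hinton II […] per NCCLS guidance (M7-A2), using 5×10^5 CFU/mL and concentrations from 64 to 0.06 μg/mL.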

Escherichia coli = tested on: Escherichia coli
How it was run: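 Broth dilution per NCCLS M7-A2 in Muller-Hinton II […], inoculum 5×10^5 CFU/mL, antibiotic tested over 64-0.06 μg/mL. MIC is taken as the lowest concentration that inhibits growth. Panel includes recent clinical isolates resistant to methicillin, penicillin and/or vancomycin.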

Staphylococcus sp. = tested on: Staphylococcus sp.
How it was run: as §1

Streptococcus sp. = tested on: Streptococcus sp.
How it was run: as §1

[1] = Enterococcus faecalis (GC 2242)
[2] = Enterococcus faecalis (GC 2691)
[3] = Enterococcus faecalis (GC 3059)
[4] = broth dilution, inoculum 5×10^5 CFU/mL
[5] = Streptococcus agalactiae (GC 4564)
[6] = Streptococcus pneumoniae (ATCC 6301)
[7] = Streptococcus pneumoniae (GC 1894)
[8] = Streptococcus pneumoniae (GC 4565)
[9] = Streptococcus pyogenes (GC 4563)

CC(c1ccccc1)C1NC(=O)CNC(=O)C(CO)NC(=O)C(C(O)C2CNC(=N)N2C2OC(CO)C(O)C(O)C2O)NC(=O)C(C(O)C2CNC(=N)N2)NC(=O)C(Cc2ccc(OC3OC(CO)C(OC4OC(COCc5ccc(Oc6ccccc6)cc5)C(O)C(O)C4O)C(O)C3O)cc2)NC1=O (stereo not drawn) [Example 236, Cyclo[glycyl-β-methylphenylalanyl-O-[4-O-[6-O-(4-phenoxybenzyl)hexopyranosyl]hexopyranosyl]tyrosyl-3-(2-iminoimidazolidin-4-yl)seryl-3-(3-hexopyranosyl-2-iminoimidazolidin-4-yl)serylseryl]]
MIC Enterococcus avium (GC 4558) (Enterococcus sp.): 2 µg/mL (≈ 1.35 µM) | MIC Enterococcus faecalis (ATCC 29212) (Enterococcus sp.): 4 µg/mL (≈ 2.71 µM) | MIC Enterococcus faecalis (GC 2242) (Enterococcus sp.; [1]): 4 µg/mL (≈ 2.71 µM) | MIC Enterococcus faecalis (GC 2691) (Enterococcus sp.; [2]): 2 µg/mL (≈ 1.35 µM) | MIC Enterococcus faecalis (GC 3059) (Enterococcus sp.; [3]): 2 µg/mL (≈ 1.35 µM) | MIC Enterococcus faecalis (GC 4552) (Enterococcus sp.): 4 µg/mL (≈ 2.71 µM) | MIC Enterococcus faecalis (GC 4553) (Enterococcus sp.): 4 µg/mL (≈ 2.71 µM) | MIC Enterococcus faecalis (GC 4554) (Enterococcus sp.): 4 µg/mL (≈ 2.71 µM) | MIC Enterococcus faecalis (GC 6189) (Enterococcus sp.): 2 µg/mL (≈ 1.35 µM) | MIC Enterococcus faecium (GC 2243) (Enterococcus sp.): 4 µg/mL (≈ 2.71 µM) | MIC Enterococcus faecium (GC 4556) (Enterococcus sp.): 4 µg/mL (≈ 2.71 µM) | MIC Enterococcus faecium (GC 4557) (Enterococcus sp.): 2 µg/mL (≈ 1.35 µM) | MIC Enterococcus faecalis (GC 2242) (Enterococcus sp.; [4]): 4 µg/mL (≈ 2.71 µM) | MIC Enterococcus faecalis (GC 2691) (Enterococcus sp.; [4]): 2 µg/mL (≈ 1.35 µM) | MIC Enterococcus faecalis (GC 3059) (Enterococcus sp.; [4]): 2 µg/mL (≈ 1.35 µM) | MIC Escherichia coli (ATCC 25922) (Escherichia coli): >64 µg/mL | MIC Escherichia coli (GC 4559) (Escherichia coli): >64 µg/mL | MIC Escherichia coli (GC 4560) (Escherichia coli): 1 µg/mL (≈ 0.677 µM) | MIC Coagulase Negative Staphylococcus (GC 4547) (Staphylococcus sp.): 2 µg/mL (≈ 1.35 µM) | MIC Coagulase Negative Staphylococcus (GC 4548) (Staphylococcus sp.): 0.5 µg/mL (≈ 0.338 µM) | MIC Coagulase Negative Staphylococcus (GC 4549) (Staphylococcus sp.): 0.5 µg/mL (≈ 0.338 µM) | MIC Coagulase Negative Staphylococcus (GC 4551) (Staphylococcus sp.): 2 µg/mL (≈ 1.35 µM) | MIC Coagulase Negative Staphylococcus (GC 6257) (Staphylococcus sp.): 1 µg/mL (≈ 0.677 µM) | MIC Staphylococcus aureus (ATCC 29213) (Staphylococcus sp.): 2 µg/mL (≈ 1.35 µM) | MIC Staphylococcus aureus (GC 1131) (Staphylococcus sp.): 2 µg/mL (≈ 1.35 µM) | MIC Staphylococcus aureus (GC 3051) (Staphylococcus sp.): 2 µg/mL (≈ 1.35 µM) | MIC Staphylococcus aureus (GC 3053) (Staphylococcus sp.): 2 µg/mL (≈ 1.35 µM) | MIC Staphylococcus aureus (GC 4541) (Staphylococcus sp.): 2 µg/mL (≈ 1.35 µM) | MIC Staphylococcus aureus (GC 4542) (Staphylococcus sp.): 4 µg/mL (≈ 2.71 µM) | MIC Staphylococcus aureus (GC 4544) (Staphylococcus sp.): 2 µg/mL (≈ 1.35 µM) | MIC Staphylococcus aureus (GC 4545) (Staphylococcus sp.): 2 µg/mL (≈ 1.35 µM) | MIC Staphylococcus aureus-SMITH (GC 4543) (Staphylococcus sp.): 2 µg/mL (≈ 1.35 µM) | MIC Staphylococcus haemolyticus (GC 4546) (Staphylococcus sp.): 2 µg/mL (≈ 1.35 µM) | MIC Streptococcus agalactiae (GC 4564) (Streptococcus sp.; [5]): 0.12 µg/mL (≈ 0.0812 µM) | MIC Streptococcus pneumoniae (ATCC 6301) (Streptococcus sp.; [6]): <0.06 µg/mL | MIC Streptococcus pneumoniae (GC 1894) (Streptococcus sp.; [7]): <0.06 µg/mL | MIC Streptococcus pneumoniae (GC 4565) (Streptococcus sp.; [8]): <0.06 µg/mL | MIC Streptococcus pyogenes (GC 4563) (Streptococcus sp.; [9]): <0.06 µg/mL | MIC Streptococcus agalactiae (GC 4564) (Streptococcus sp.; [4]): 0.12 µg/mL (≈ 0.0812 µM) | MIC Streptococcus pneumoniae (ATCC 6301) (Streptococcus sp.; [4]): <0.06 µg/mL | MIC Streptococcus pneumoniae (GC 1894) (Streptococcus sp.; [4]): <0.06 µg/mL | MIC Streptococcus pneumoniae (GC 4565) (Streptococcus sp.; [4]): <0.06 µg/mL | MIC Streptococcus pyogenes (GC 4563) (Streptococcus sp.; [4]): <0.06 µg/mL

COc1ccc(COCC2OC(OC3C(CO)OC(Oc4ccc(CC5NC(=O)C(C(C)c6ccccc6)NC(=O)CNC(=O)C(CO)NC(=O)C(C(O)C6CNC(=N)N6C6OC(CO)C(O)C(O)C6O)NC(=O)C(C(O)C6CNC(=N)N6)NC5=O)cc4)C(O)C3O)C(O)C(O)C2O)cc1F (centres unmarked) [Example 237]
MIC Enterococcus avium (GC 4558) (Enterococcus sp.): 16 µg/mL (≈ 11.2 µM) | MIC Enterococcus faecalis (ATCC 29212) (Enterococcus sp.): 16 µg/mL (≈ 11.2 µM) | MIC Enterococcus faecalis (GC 2242) (Enterococcus sp.; [1]): 16 µg/mL (≈ 11.2 µM) | MIC Enterococcus faecalis (GC 2691) (Enterococcus sp.; [2]): 16 µg/mL (≈ 11.2 µM) | MIC Enterococcus faecalis (GC 3059) (Enterococcus sp.; [3]): 32 µg/mL (≈ 22.3 µM) | MIC Enterococcus faecalis (GC 4552) (Enterococcus sp.): 16 µg/mL (≈ 11.2 µM) | MIC Enterococcus faecalis (GC 4553) (Enterococcus sp.): 16 µg/mL (≈ 11.2 µM) | MIC Enterococcus faecalis (GC 4554) (Enterococcus sp.): 32 µg/mL (≈ 22.3 µM) | MIC Enterococcus faecalis (GC 6189) (Enterococcus sp.): 16 µg/mL (≈ 11.2 µM) | MIC Enterococcus faecium (GC 2243) (Enterococcus sp.): 16 µg/mL (≈ 11.2 µM) | MIC Enterococcus faecium (GC 4556) (Enterococcus sp.): 16 µg/mL (≈ 11.2 µM) | MIC Enterococcus faecium (GC 4557) (Enterococcus sp.): 4 µg/mL (≈ 2.79 µM) | MIC Enterococcus faecalis (GC 2242) (Enterococcus sp.; [4]): 16 µg/mL (≈ 11.2 µM) | MIC Enterococcus faecalis (GC 2691) (Enterococcus sp.; [4]): 16 µg/mL (≈ 11.2 µM) | MIC Enterococcus faecalis (GC 3059) (Enterococcus sp.; [4]): 32 µg/mL (≈ 22.3 µM) | MIC Escherichia coli (ATCC 25922) (Escherichia coli): 64 µg/mL (≈ 44.6 µM) | MIC Escherichia coli (GC 4559) (Escherichia coli): 64 µg/mL (≈ 44.6 µM) | MIC Escherichia coli (GC 4560) (Escherichia coli): 1 µg/mL (≈ 0.698 µM) | MIC Coagulase Negative Staphylococcus (GC 4547) (Staphylococcus sp.): 2 µg/mL (≈ 1.4 µM) | MIC Coagulase Negative Staphylococcus (GC 4548) (Staphylococcus sp.): 1 µg/mL (≈ 0.698 µM) | MIC Coagulase Negative Staphylococcus (GC 4549) (Staphylococcus sp.): 1 µg/mL (≈ 0.698 µM) | MIC Coagulase Negative Staphylococcus (GC 4551) (Staphylococcus sp.): 4 µg/mL (≈ 2.79 µM) | MIC Coagulase Negative Staphylococcus (GC 6257) (Staphylococcus sp.): 1 µg/mL (≈ 0.698 µM) | MIC Staphylococcus aureus (ATCC 29213) (Staphylococcus sp.): 4 µg/mL (≈ 2.79 µM) | MIC Staphylococcus aureus (GC 1131) (Staphylococcus sp.): 4 µg/mL (≈ 2.79 µM) | MIC Staphylococcus aureus (GC 3051) (Staphylococcus sp.): 2 µg/mL (≈ 1.4 µM) | MIC Staphylococcus aureus (GC 3053) (Staphylococcus sp.): 4 µg/mL (≈ 2.79 µM) | MIC Staphylococcus aureus (GC 4541) (Staphylococcus sp.): 2 µg/mL (≈ 1.4 µM) | MIC Staphylococcus aureus (GC 4542) (Staphylococcus sp.): 8 µg/mL (≈ 5.58 µM) | MIC Staphylococcus aureus (GC 4544) (Staphylococcus sp.): 4 µg/mL (≈ 2.79 µM) | MIC Staphylococcus aureus (GC 4545) (Staphylococcus sp.): 2 µg/mL (≈ 1.4 µM) | MIC Staphylococcus aureus-SMITH (GC 4543) (Staphylococcus sp.): 2 µg/mL (≈ 1.4 µM) | MIC Staphylococcus haemolyticus (GC 4546) (Staphylococcus sp.): 1 µg/mL (≈ 0.698 µM) | MIC Streptococcus agalactiae (GC 4564) (Streptococcus sp.; [5]): 2 µg/mL (≈ 1.4 µM) | MIC Streptococcus pneumoniae (ATCC 6301) (Streptococcus sp.; [6]): 0.5 µg/mL (≈ 0.349 µM) | MIC Streptococcus pneumoniae (GC 1894) (Streptococcus sp.; [7]): 0.25 µg/mL (≈ 0.174 µM) | MIC Streptococcus pneumoniae (GC 4565) (Streptococcus sp.; [8]): 0.5 µg/mL (≈ 0.349 µM) | MIC Streptococcus pyogenes (GC 4563) (Streptococcus sp.; [9]): 1 µg/mL (≈ 0.698 µM) | MIC Streptococcus agalactiae (GC 4564) (Streptococcus sp.; [4]): 2 µg/mL (≈ 1.4 µM) | MIC Streptococcus pneumoniae (ATCC 6301) (Streptococcus sp.; [4]): 0.5 µg/mL (≈ 0.349 µM) | MIC Streptococcus pneumoniae (GC 1894) (Streptococcus sp.; [4]): 0.25 µg/mL (≈ 0.174 µM) | MIC Streptococcus pneumoniae (GC 4565) (Streptococcus sp.; [4]): 0.5 µg/mL (≈ 0.349 µM) | MIC Streptococcus pyogenes (GC 4563) (Streptococcus sp.; [4]): 1 µg/mL (≈ 0.698 µM)
